Assay results taken from ChEMBL document CHEMBL1201862, “PubChem BioAssay data set” (2004).
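Following 48 hours of exposure in 96-well plates, responses at five concentrations were used to interpolate endpoints linearly. At the GI50, growth is halved.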 The source made the active and inactive calls. Cut-off read from the data, not from the text of the source: active = GI50 up to about 1.1 µM and inactive = higher. Square brackets hold non-standard residues; d marks the D form. Peptide text beside a SMILES is read from it. * marks the point of attachment. Phe(4-NO2) = N[CH](Cc1ccc([N+](=O)[O-])cc1)C(=O)O; Boc = CC(C)(C)OC(=O)*

Columns and labels:
Experiment in all cases: inhibition of tumour cell growth, NCI panel, 48 h
K562 = test system: K562
SW-620 = test system: SW-620
CAKI-1 = test system: CAKI-1
HOP-92 = test system: HOP-92
SF-268 = test system: SF-268
SK-MEL-5 = test system: SK-MEL-5
HL-60 = test system: HL-60
BT-549 = test system: BT-549
Malme-3M = test system: Malme-3M
MDA-MB-231 = test system: MDA-MB-231
RPMI-8226 = test system: RPMI-8226
NCI/ADR-RES = test system: NCI/ADR-RES
PC-3 = test system: PC-3
ACHN = test system: ACHN
LOX IMVI = test system: LOX IMVI
SK-MEL-2 = test system: SK-MEL-2
SN12C = test system: SN12C
Hs-578T = test system: Hs-578T
SNB-19 = test system: SNB-19
SF-539 = test system: SF-539

Measured: GI50

COc1cccc2c1C(=O)C(=O)c1c-2oc(=O)c2cc(C)cc(OC)c12
inactive: K562 22.3 µM | SW-620 29.4 µM | CAKI-1 67.5 µM | HOP-92 59.2 µM | SF-268 17.3 µM | SK-MEL-5 17 µM | HL-60 25.7 µM | BT-549 13.5 µM | Malme-3M 26.9 µM | MDA-MB-231 21.3 µM | RPMI-8226 20.6 µM | NCI/ADR-RES 15.8 µM | PC-3 37.8 µM | ACHN > 75 µM | LOX IMVI 13.6 µM | SK-MEL-2 16 µM | SN12C 53.8 µM | Hs-578T 19.6 µM | SNB-19 37.8 µM | SF-539 63 µM

NCCCCCNOCCCN
inactive: K562 > 100 µM | SW-620 > 100 µM | HOP-92 > 100 µM | SF-268 > 100 µM | SK-MEL-5 > 100 µM | HL-60 > 100 µM | BT-549 > 100 µM | Malme-3M > 100 µM | MDA-MB-231 > 100 µM | RPMI-8226 > 100 µM | NCI/ADR-RES > 100 µM | PC-3 > 100 µM | ACHN > 100 µM | LOX IMVI > 100 µM | SK-MEL-2 > 100 µM | SN12C > 100 µM | Hs-578T > 100 µM | SNB-19 > 100 µM | SF-539 > 100 µM

Cc1cccc(/N=N/c2c(C)nn(C(=O)CC(=O)Nc3ccccc3)c2C)c1
inactive: SW-620 > 100 µM | CAKI-1 > 100 µM | HOP-92 > 100 µM | SF-268 > 100 µM | SK-MEL-5 > 100 µM | HL-60 > 100 µM | BT-549 > 100 µM | Malme-3M > 100 µM | MDA-MB-231 > 100 µM | RPMI-8226 > 100 µM | NCI/ADR-RES > 100 µM | PC-3 > 100 µM | ACHN > 100 µM | LOX IMVI > 100 µM | SK-MEL-2 > 100 µM | SN12C > 100 µM | Hs-578T > 100 µM | SNB-19 > 100 µM | SF-539 > 100 µM

O=S(=O)([C-]([I+]c1ccccc1)S(=O)(=O)C(F)(F)C(F)(F)C(F)(F)C(F)(F)F)C(F)(F)C(F)(F)C(F)(F)C(F)(F)F
inactive: K562 4.11 µM | SW-620 5.69 µM | CAKI-1 13.2 µM | HOP-92 8.77 µM | SF-268 18.5 µM | SK-MEL-5 14.4 µM | HL-60 4.67 µM | BT-549 15.2 µM | Malme-3M 11 µM | MDA-MB-231 24.1 µM | RPMI-8226 3.54 µM | NCI/ADR-RES 24.3 µM | PC-3 17.2 µM | ACHN 6.49 µM | LOX IMVI 14.4 µM | Hs-578T 20.1 µM | SNB-19 15.2 µM | SF-539 15.5 µM

CCOC(=O)C(Cc1ccccc1)(Cc1ccc(O)cn1)NC(=O)c1ccccc1 (centres undefined)
inactive: K562 29.7 µM | SW-620 29.6 µM | CAKI-1 26.2 µM | HOP-92 18.5 µM | SF-268 17.7 µM | SK-MEL-5 16.5 µM | HL-60 21.7 µM | BT-549 30.1 µM | Malme-3M 14.2 µM | MDA-MB-231 28.1 µM | RPMI-8226 25.9 µM | NCI/ADR-RES 26.4 µM | PC-3 18.5 µM | ACHN 35.8 µM | LOX IMVI 19.8 µM | SK-MEL-2 20.2 µM | Hs-578T 16.3 µM | SNB-19 32 µM | SF-539 23.8 µM

COCC12CCC(OC)C34C5CC6(O)C(OC)CC(OC(C)=O)(C5C6OC(=O)c5ccccc5)C(C(OC)C13)C4N(C)C2 (centres undefined)
inactive: SW-620 > 100 µM | CAKI-1 > 100 µM | HOP-92 > 100 µM | SF-268 > 100 µM | SK-MEL-5 > 100 µM | HL-60 83.8 µM | BT-549 > 100 µM | Malme-3M > 100 µM | MDA-MB-231 > 100 µM | RPMI-8226 > 100 µM | NCI/ADR-RES > 100 µM | PC-3 > 100 µM | ACHN > 100 µM | LOX IMVI > 100 µM | SK-MEL-2 > 100 µM | SN12C > 100 µM | Hs-578T > 100 µM | SNB-19 > 100 µM | SF-539 > 100 µM

Nc1ccccc1C(=O)CCc1c[nH]c2ccccc12
inactive: K562 > 100 µM | SW-620 > 100 µM | HOP-92 13.3 µM | SF-268 43.4 µM | HL-60 > 100 µM | BT-549 19.3 µM | Malme-3M > 100 µM | MDA-MB-231 > 100 µM | RPMI-8226 > 100 µM | NCI/ADR-RES > 100 µM | PC-3 > 100 µM | ACHN 53.7 µM | LOX IMVI 47.5 µM | SK-MEL-2 > 100 µM | SN12C > 100 µM | Hs-578T 24.2 µM | SNB-19 92.3 µM | SF-539 30.3 µM

COc1ccc(Nc2nc3cc(C(F)(F)F)ccc3n3cccc23)cc1OC
inactive: K562 9.04 µM | SW-620 34.7 µM | CAKI-1 27.9 µM | HOP-92 15.7 µM | SF-268 26.7 µM | SK-MEL-5 14.5 µM | HL-60 19.8 µM | BT-549 17.3 µM | Malme-3M 24.2 µM | MDA-MB-231 17.8 µM | RPMI-8226 13.6 µM | NCI/ADR-RES 15.6 µM | PC-3 10.6 µM | ACHN 17.7 µM | LOX IMVI 4.7 µM | SK-MEL-2 15.5 µM | Hs-578T 29.2 µM | SNB-19 19.4 µM | SF-539 16.8 µM

COc1ccc(-c2cc(=O)c3c(O)cc(C)cc3o2)cc1OC
inactive: K562 > 100 µM | SW-620 > 100 µM | HOP-92 22.8 µM | SF-268 > 100 µM | SK-MEL-5 > 100 µM | HL-60 > 100 µM | BT-549 > 100 µM | Malme-3M > 100 µM | MDA-MB-231 > 100 µM | RPMI-8226 > 100 µM | NCI/ADR-RES > 100 µM | PC-3 > 100 µM | ACHN > 100 µM | LOX IMVI > 100 µM | SK-MEL-2 > 100 µM | SN12C > 100 µM | Hs-578T > 100 µM | SNB-19 > 100 µM | SF-539 > 100 µM

CNC(=O)CCC(NC(=O)OC(C)(C)C)C(=O)NC(Cc1ccc([N+](=O)[O-])cc1)C(=O)NCC(=O)NC (centres undefined) (Boc-Glu(NHMe)-[Phe(4-NO2)]-Gly-NHMe; configuration not given here)
inactive: K562 > 100 µM | SW-620 > 100 µM | CAKI-1 > 100 µM | HOP-92 > 100 µM | SF-268 > 100 µM | SK-MEL-5 > 100 µM | HL-60 > 100 µM | BT-549 > 100 µM | Malme-3M > 100 µM | MDA-MB-231 > 100 µM | RPMI-8226 > 100 µM | NCI/ADR-RES > 100 µM | PC-3 > 100 µM | ACHN > 100 µM | LOX IMVI > 100 µM | SN12C > 100 µM | Hs-578T > 100 µM | SNB-19 > 100 µM | SF-539 > 100 µM
